Blank lines part the entries; values can stand above or below the molecule they belong to.
Experiments:
Assay in all cases: Caliper, Mobility shift assay off-chip
[1] = target: MUSK (human) (UniProt O15146)
[2] = target: CHUK (human) (UniProt O15111)
[3] = target: FGR (human) (UniProt P09769)
[4] = target: CAMK4 (human) (UniProt Q16566)
[5] = target: LYN (human) (UniProt P07948)
[6] = target: STK33 (human) (UniProt Q9BYT3)
[7] = target: MET (human) (UniProt P08581)
[8] = target: TLK2 (human) (UniProt Q86UE8)
[9] = target: IRAK1 (human) (UniProt P51617)
[10] = target: ACVR1B (human) (UniProt P36896)
[11] = target: BRSK1 (human) (UniProt Q8TDC3)
[12] = target: PAK6 (human) (UniProt Q9NQU5)
[13] = target: ROCK2 (human) (UniProt O75116)
[14] = target: FES (human) (UniProt P07332)
[15] = target: INSRR (human) (UniProt P14616)
[16] = target: MINK1 (human) (UniProt Q8N4C8)
[17] = target: EPHA1 (human) (UniProt P21709)
[18] = target: PTK2 (human) (UniProt Q05397)
[19] = target: MAP2K7 (human) (UniProt O14733)
[20] = target: NTRK1 (human) (UniProt P04629)
[21] = test system: EGFR (human), P00533 [T790M]
[22] = target: PTK6 (human) (UniProt Q13882)
[23] = test system: FLT3 (human), P36888 [D835Y]
[24] = target: PLK2 (human) (UniProt Q9NYY3)
[25] = target: CSNK1D (human) (UniProt P48730)
[26] = target: PTK2B (human) (UniProt Q14289)
[27] = target: TAOK2 (human) (UniProt Q9UL54)
[28] = target: SGK2 (human) (UniProt Q9HBY8)
[29] = target: ABL1 (human) (UniProt P00519)
[30] = target: GRK6 (human) (UniProt P43250)
[31] = target: MAP3K5 (human) (UniProt Q99683)
[32] = target: EPHB3 (human) (UniProt P54753)
[33] = target: YES1 (human) (UniProt P07947)
[34] = target: WNK2 (human) (UniProt Q9Y3S1)
[35] = target: NEK11 (human) (UniProt Q8NG66)
[36] = target: DMPK (human) (UniProt Q09013)
[37] = test system: KIT (human), P10721 [V654A]
[38] = target: HCK (human) (UniProt P08631)
[39] = target: INSR (human) (UniProt P06213)
[40] = target: EPHB2 (human) (UniProt P29323)
[41] = target: CAMK2D (human) (UniProt Q13557)
[42] = target: TNK2 (human) (UniProt Q07912)

Sequence of PTK2 (human) (Q05397 whole entry, looked up): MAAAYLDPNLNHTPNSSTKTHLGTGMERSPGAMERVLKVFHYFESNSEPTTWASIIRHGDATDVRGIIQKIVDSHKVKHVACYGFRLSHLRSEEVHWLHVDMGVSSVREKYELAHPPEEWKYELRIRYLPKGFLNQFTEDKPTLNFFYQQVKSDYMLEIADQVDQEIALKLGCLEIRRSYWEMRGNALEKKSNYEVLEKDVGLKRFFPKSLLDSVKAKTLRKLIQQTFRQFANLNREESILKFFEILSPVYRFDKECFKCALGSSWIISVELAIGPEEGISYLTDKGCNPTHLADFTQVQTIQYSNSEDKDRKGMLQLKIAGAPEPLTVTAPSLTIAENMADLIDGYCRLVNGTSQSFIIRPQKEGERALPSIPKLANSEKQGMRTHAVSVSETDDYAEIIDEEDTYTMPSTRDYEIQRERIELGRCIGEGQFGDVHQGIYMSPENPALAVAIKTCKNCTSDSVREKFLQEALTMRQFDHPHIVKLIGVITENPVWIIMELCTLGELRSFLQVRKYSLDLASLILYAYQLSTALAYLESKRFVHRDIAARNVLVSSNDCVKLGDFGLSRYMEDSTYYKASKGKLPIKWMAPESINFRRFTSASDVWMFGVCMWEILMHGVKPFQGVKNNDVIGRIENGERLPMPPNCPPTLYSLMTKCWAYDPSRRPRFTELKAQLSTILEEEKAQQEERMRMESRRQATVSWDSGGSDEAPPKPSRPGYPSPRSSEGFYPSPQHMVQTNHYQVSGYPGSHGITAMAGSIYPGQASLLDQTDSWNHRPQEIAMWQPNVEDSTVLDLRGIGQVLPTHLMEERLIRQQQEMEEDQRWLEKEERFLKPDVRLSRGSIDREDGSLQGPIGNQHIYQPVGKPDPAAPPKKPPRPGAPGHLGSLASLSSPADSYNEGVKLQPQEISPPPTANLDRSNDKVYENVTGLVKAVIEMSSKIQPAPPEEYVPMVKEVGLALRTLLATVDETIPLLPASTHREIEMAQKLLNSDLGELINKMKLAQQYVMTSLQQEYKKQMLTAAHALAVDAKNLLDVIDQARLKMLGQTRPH
Sequence of CSNK1D (human) (P48730 whole entry, looked up): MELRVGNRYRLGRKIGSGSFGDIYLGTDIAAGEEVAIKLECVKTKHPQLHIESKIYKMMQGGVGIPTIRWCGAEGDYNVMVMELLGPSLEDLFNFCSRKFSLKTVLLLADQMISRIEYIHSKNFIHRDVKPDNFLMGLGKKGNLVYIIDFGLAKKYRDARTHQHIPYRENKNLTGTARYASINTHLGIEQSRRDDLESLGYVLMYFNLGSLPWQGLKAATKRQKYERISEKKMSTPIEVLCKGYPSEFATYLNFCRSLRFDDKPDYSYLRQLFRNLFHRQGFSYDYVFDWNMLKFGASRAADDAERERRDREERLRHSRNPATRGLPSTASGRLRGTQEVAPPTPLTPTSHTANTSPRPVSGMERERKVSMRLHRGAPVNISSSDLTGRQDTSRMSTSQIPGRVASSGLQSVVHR
Sequence of EPHA1 (human) (P21709 whole entry, looked up): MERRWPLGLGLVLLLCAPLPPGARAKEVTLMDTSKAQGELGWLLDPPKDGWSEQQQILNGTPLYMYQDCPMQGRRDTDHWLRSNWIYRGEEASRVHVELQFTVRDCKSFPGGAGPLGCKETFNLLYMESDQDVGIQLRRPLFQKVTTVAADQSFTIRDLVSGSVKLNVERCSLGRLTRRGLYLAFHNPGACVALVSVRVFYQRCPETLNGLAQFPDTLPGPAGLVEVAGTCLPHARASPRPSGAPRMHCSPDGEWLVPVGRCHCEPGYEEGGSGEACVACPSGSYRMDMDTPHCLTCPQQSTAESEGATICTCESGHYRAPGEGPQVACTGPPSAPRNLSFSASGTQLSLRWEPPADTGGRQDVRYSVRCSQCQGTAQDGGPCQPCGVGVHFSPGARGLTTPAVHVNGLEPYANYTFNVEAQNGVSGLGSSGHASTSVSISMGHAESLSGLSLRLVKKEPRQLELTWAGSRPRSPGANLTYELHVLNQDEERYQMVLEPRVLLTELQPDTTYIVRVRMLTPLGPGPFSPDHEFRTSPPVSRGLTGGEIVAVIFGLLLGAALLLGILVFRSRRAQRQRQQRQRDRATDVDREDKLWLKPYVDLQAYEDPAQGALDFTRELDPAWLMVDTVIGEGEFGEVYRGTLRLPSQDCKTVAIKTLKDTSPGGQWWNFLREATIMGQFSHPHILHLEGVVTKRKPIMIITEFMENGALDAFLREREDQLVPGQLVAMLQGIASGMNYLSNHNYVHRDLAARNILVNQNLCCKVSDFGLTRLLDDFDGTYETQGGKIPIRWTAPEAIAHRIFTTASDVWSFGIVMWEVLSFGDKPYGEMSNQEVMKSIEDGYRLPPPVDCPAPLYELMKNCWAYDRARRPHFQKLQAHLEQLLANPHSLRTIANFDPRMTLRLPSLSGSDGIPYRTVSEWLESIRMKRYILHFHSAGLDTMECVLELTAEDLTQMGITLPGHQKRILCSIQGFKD
Sequence of STK33 (human) (Q9BYT3 whole entry, looked up): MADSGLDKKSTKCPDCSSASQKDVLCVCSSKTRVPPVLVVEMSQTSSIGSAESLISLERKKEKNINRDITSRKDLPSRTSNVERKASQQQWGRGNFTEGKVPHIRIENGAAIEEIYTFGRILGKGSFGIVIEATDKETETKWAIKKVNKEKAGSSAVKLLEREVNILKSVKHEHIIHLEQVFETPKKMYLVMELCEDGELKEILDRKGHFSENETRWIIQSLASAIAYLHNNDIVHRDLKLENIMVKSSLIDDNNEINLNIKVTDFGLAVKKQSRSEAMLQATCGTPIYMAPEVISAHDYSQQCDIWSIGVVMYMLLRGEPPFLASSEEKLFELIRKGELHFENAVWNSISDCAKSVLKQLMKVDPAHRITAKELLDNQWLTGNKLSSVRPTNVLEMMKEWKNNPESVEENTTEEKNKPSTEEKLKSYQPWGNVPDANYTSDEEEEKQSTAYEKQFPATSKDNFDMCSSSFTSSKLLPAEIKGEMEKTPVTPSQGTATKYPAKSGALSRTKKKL
Sequence of MAP2K7 (human) (O14733 whole entry, looked up): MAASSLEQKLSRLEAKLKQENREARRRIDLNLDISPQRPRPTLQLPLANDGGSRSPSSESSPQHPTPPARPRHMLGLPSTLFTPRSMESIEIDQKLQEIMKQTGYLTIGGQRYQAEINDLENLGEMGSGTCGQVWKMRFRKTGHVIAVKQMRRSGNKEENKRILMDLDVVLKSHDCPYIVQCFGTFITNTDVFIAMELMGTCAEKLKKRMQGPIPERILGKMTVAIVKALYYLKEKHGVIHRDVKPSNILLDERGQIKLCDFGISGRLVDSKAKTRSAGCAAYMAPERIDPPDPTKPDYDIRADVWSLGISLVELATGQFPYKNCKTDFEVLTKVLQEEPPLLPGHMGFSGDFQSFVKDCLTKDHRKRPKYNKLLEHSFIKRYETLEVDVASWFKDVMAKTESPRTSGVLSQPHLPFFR
Sequence of FGR (human) (P09769 whole entry, looked up): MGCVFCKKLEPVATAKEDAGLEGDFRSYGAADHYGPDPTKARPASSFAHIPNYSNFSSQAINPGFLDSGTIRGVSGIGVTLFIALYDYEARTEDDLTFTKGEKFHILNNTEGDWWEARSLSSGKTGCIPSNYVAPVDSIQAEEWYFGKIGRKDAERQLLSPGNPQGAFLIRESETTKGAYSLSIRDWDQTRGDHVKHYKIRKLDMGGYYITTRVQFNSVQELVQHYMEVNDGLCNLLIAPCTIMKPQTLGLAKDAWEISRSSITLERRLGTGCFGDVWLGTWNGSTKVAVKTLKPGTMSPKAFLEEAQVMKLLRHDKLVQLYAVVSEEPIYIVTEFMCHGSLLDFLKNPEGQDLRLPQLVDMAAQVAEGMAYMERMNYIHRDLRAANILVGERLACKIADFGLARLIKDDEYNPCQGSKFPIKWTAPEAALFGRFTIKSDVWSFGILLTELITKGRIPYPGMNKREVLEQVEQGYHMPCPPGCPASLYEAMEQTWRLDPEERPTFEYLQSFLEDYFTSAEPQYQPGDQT
Sequence of PTK6 (human) (Q13882 whole entry, looked up): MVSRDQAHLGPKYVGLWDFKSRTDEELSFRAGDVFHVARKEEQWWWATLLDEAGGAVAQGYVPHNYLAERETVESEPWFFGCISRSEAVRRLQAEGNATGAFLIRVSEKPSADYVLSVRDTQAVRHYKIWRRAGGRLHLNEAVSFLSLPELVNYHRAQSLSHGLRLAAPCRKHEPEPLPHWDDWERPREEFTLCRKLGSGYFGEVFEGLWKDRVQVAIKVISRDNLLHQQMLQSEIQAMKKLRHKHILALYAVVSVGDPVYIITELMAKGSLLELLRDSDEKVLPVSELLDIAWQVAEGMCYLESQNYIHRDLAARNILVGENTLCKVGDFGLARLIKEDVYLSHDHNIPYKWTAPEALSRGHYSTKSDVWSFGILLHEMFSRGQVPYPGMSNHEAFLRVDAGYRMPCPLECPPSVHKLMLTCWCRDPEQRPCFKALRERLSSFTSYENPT
Sequence of ACVR1B (human) (P36896 whole entry, looked up): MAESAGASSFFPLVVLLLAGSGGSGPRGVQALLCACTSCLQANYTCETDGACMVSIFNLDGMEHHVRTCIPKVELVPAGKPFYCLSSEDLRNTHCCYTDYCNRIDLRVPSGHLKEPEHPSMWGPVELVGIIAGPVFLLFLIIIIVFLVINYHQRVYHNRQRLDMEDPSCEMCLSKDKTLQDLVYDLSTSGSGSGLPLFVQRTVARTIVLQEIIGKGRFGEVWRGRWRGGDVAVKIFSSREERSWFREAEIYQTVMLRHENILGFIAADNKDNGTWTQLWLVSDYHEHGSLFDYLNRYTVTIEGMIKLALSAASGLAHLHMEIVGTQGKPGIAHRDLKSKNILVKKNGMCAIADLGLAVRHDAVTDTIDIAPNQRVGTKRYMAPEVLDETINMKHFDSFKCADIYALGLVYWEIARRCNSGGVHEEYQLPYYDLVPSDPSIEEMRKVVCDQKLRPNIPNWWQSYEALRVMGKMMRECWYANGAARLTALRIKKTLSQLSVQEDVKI

- residual activity ([1]; compound 10.0 µM): 99%
- residual activity ([2]; compound 10.0 µM): 36%
- residual activity ([3]; compound 10.0 µM): 36%
- residual activity ([4]; compound 10.0 µM): 69%
- residual activity ([5]; compound 10.0 µM): 56%
- residual activity ([6]; compound 10.0 µM): 58%
- residual activity ([7]; compound 10.0 µM): 17%
- residual activity ([8]; compound 10.0 µM): 106%
- residual activity ([9]; compound 10.0 µM): 58%
- residual activity ([10]; compound 10.0 µM): 18%
- residual activity ([11]; compound 10.0 µM): 36%
- residual activity ([12]; compound 10.0 µM): 112%
- residual activity ([13]; compound 10.0 µM): 67%
- residual activity ([14]; compound 10.0 µM): 69%
- residual activity ([15]; compound 10.0 µM): 71%
- residual activity ([16]; compound 10.0 µM): 23%
- residual activity ([17]; compound 10.0 µM): 80%
- residual activity ([18]; compound 10.0 µM): 76%
- residual activity ([19]; compound 10.0 µM): 30%
- residual activity ([20]; compound 10.0 µM): 4%
- residual activity ([21]; compound 10.0 µM): 65%
- residual activity ([22]; compound 10.0 µM): 81%
- residual activity ([23]; compound 10.0 µM): 10%
- residual activity ([24]; compound 10.0 µM): 107%
- residual activity ([25]; compound 10.0 µM): 35%
- residual activity ([26]; compound 10.0 µM): 47%
- residual activity ([27]; compound 10.0 µM): 81%
- residual activity ([28]; compound 10.0 µM): 26%
- residual activity ([29]; compound 10.0 µM): 73%
- residual activity ([30]; compound 10.0 µM): 108%
- residual activity ([31]; compound 10.0 µM): 77%
- residual activity ([32]; compound 10.0 µM): 113%
- residual activity ([33]; compound 10.0 µM): 109%
- residual activity ([34]; compound 10.0 µM): 65%
- residual activity ([35]; compound 10.0 µM): 51%
- residual activity ([36]; compound 10.0 µM): 97%
- residual activity ([37]; compound 10.0 µM): 34%
- residual activity ([38]; compound 10.0 µM): 63%
- residual activity ([39]; compound 10.0 µM): 95%
- residual activity ([40]; compound 10.0 µM): 99%
- residual activity ([41]; compound 10.0 µM): 11%
SMILES: COc1ccc(C#Cc2ccc3ncc4ncn(-c5ccc(CCN)cc5)c4c3c2)cc1

- residual activity ([18]; compound 10.0 µM): 93%
- residual activity ([42]; compound 10.0 µM): 66%
SMILES: CC(C)(C)c1nc2c3ccc(F)cc3c3c(=O)[nH]ccc3c2[nH]1

- residual activity ([1]; compound 1.0 µM): 96%
- residual activity ([2]; compound 1.0 µM): 102%
- residual activity ([3]; compound 1.0 µM): 57%
- residual activity ([4]; compound 1.0 µM): 22%
- residual activity ([5]; compound 1.0 µM): 72%
- residual activity ([6]; compound 1.0 µM): 41%
- residual activity ([7]; compound 1.0 µM): 96%
- residual activity ([8]; compound 1.0 µM): 80%
- residual activity ([9]; compound 1.0 µM): 102%
- residual activity ([10]; compound 1.0 µM): 93%
- residual activity ([11]; compound 1.0 µM): 29%
- residual activity ([12]; compound 1.0 µM): 103%
- residual activity ([13]; compound 1.0 µM): 29%
- residual activity ([14]; compound 1.0 µM): 92%
- residual activity ([15]; compound 1.0 µM): 104%
- residual activity ([16]; compound 1.0 µM): 117%
- residual activity ([17]; compound 1.0 µM): 99%
- residual activity ([18]; compound 1.0 µM): 75%
- residual activity ([19]; compound 1.0 µM): 107%
- residual activity ([20]; compound 1.0 µM): 10%
- residual activity ([21]; compound 1.0 µM): 36%
- residual activity ([42]; compound 1.0 µM): 32%
- residual activity ([22]; compound 1.0 µM): 105%
- residual activity ([23]; compound 1.0 µM): 9%
- residual activity ([24]; compound 1.0 µM): 72%
- residual activity ([25]; compound 1.0 µM): 105%
- residual activity ([26]; compound 1.0 µM): 59%
- residual activity ([27]; compound 1.0 µM): 101%
- residual activity ([28]; compound 1.0 µM): 86%
- residual activity ([29]; compound 1.0 µM): 71%
- residual activity ([30]; compound 1.0 µM): 101%
- residual activity ([31]; compound 1.0 µM): 104%
- residual activity ([32]; compound 1.0 µM): 132%
- residual activity ([33]; compound 1.0 µM): 63%
- residual activity ([34]; compound 1.0 µM): 98%
- residual activity ([35]; compound 1.0 µM): 116%
- residual activity ([36]; compound 1.0 µM): 100%
- residual activity ([37]; compound 1.0 µM): 46%
- residual activity ([38]; compound 1.0 µM): 31%
- residual activity ([39]; compound 1.0 µM): 107%
- residual activity ([40]; compound 1.0 µM): 92%
- residual activity ([41]; compound 1.0 µM): 25%
SMILES: C[C@@H](Nc1nc2c(C#CC3CC3)c[nH]c(=O)c2c2cc(-c3cn[nH]c3)ccc12)C(C)(C)C
